Tests used:
Format in all cases: binding
[1] = target: T1, PHD2Δ (deletion of residues 238–250) (Homo sapiens, UniProt Q9GZT9, DEL238-250); assay: Non-denaturing ESI-MS crosslinking, loop deletion variant; details: equimolar Fe(II) and compound, 3 h, 37 °C, 200 V
T1 construct: PHD2_181–426 (hereafter PHD2); His6 (N, cleaved yes); made in house; host or cells: bacterial culture (2x TY, kanamycin, IPTG)
Method: The site of crosslinking of 3 was investigated using protein variants. First, 3 was incubated with C-terminal truncated PHD2 (PHD2_181–402) and a loop deletion variant (deletion of residues 238–250, PHD2Δ). […] Thus, 3 was incubated with PHD2 constructs truncated at residues 402, 410, 414 and 418. […] Crosslinking experiments with PHD2 R411M implied that R411 is not directly involved in crosslinking (Fig. S11, ESI ^†).
Fig. 3 (A) Non-denaturing ESI-MS data on the flexible loop truncated (top) and C-terminal tail tuncated (bottom) versions of PHD2 in the presence of equimolar Fe(II) and 3 (3 hour incubation, 37 °C. Cone voltage: 200 V). A = [PHD2Δ + Fe], B = [PHD2Δ + Fe + 3], C = [PHD2_181–402 + Fe], D = [PHD2_181–402 + Fe + 3]. (B) MS/MS spectrum of the trypsin derived peptide 403[…]411 crosslinked to 3 identified K408 as the site of crosslinking.

[2] = target: T2, PHD2 K408I (Homo sapiens, UniProt Q9GZT9, K408I); assay: Non-denaturing ESI-MS crosslinking, K408I variant; details: equimolar FeSO4 and compound, 3 h, 37 °C
T2 construct: PHD2_181–426 (hereafter PHD2); His6 (N, cleaved yes); made in house; host or cells: bacterial culture (2x TY, kanamycin, IPTG); QuikChange mutagenesis
From the text: The site of crosslinking was investigated by trypsin digest and LC-MS/MS. The imine adducts formed by 1/2 were fixed by reduction using sodium cyanoborohydride (Fig. S12, ESI ^†). Modified protein samples were digested (trypsin) and analysed by ‘nano LC-MS/MS’.[19] In all 3 samples, modification by the respective inhibitor was identified on the trypsin-derived peptide 403[…]411, and localised to K408 (Fig. 3B and Fig. S13, ESI ^†).
Fig. S11 Non-denaturing ESI-MS data of K408I PHD2 in the presence of equimolar amounts of FeSO4 and the Michael acceptor 3 after 3 hours incubation at 37 °C in ammonium acetate (15 mM, pH 7.5) at a sample cone voltages of (a) 80V or (b) 200V. Non-denaturing ESI-MS data of […] PHD2 in the presence of equimolar amounts of FeSO4 and 3 after 3 hours incubation at 37 °C in ammonium acetate (15 mM, pH 7.5) at a sample cone voltage of (c) 80V or (d) 200V. The peaks observed are consistent with the following complexes: (A): K408I.Fe; (B): non-covalent K408I.Fe.3 complex, (C): covalent K408I.Fe.3 complex; (D): R411M.Fe; (E): covalent R411M.Fe.3 complex.

[3] = target: PHD1 (Homo sapiens, UniProt Q96KS0); assay: Denaturing MS covalent adduct formation with PHD1; details: enzyme 20 μM, Fe(II) 30 μM, compound 30 μM, 37 °C, 4 h
[4] = target: T3, KDM4A (Homo sapiens, UniProt O75164); assay: Denaturing MS covalent adduct formation with KDM4A; details: enzyme 20 μM, Fe(II) 30 μM, compound 30 μM, 37 °C, 4 h
T3 sequence (O75164 1-1064): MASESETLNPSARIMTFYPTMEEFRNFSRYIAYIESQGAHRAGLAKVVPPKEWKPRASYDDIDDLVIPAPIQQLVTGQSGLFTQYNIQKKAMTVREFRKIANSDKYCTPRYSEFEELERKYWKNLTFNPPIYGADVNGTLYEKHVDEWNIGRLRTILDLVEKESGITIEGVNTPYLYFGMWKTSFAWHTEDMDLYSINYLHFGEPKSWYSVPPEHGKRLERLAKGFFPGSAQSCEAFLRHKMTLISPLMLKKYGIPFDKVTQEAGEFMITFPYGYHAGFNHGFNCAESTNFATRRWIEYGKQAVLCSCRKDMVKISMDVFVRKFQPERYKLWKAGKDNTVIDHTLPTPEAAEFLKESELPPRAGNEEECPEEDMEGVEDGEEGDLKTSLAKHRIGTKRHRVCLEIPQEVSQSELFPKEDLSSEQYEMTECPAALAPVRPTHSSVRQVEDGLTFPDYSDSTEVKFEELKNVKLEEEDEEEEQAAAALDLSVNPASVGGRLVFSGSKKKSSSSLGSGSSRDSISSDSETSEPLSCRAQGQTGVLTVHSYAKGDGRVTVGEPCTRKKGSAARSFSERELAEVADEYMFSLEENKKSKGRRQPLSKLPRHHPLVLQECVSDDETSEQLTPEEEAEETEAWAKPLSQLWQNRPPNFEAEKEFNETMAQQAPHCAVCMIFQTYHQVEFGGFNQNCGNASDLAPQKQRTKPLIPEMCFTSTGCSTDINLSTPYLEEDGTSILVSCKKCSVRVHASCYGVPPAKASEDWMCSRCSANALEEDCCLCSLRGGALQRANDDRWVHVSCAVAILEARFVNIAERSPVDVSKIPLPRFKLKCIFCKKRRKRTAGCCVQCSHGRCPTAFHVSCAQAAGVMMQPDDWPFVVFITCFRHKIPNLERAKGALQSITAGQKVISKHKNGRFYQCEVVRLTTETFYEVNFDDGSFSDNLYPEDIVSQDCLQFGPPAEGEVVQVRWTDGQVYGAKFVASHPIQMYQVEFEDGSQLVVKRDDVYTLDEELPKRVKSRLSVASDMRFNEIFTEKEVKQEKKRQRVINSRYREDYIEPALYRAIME
From the text: Ligands that covalently modify proteins are used for activity-based profiling by functionalisation with an appropriate handle.[20] […] This method for incorporation of a photoreactive group near the active site of a protein to enable substrate capture is complementary to ‘photoreactive site directed mutagenesis’.[21],[22] Azide 7 was designed for use as a tag to allow ‘click’ conjugation with a handle (e.g. biotin) for activity-based profiling, or as a photoreactive aryl azide for substrate capture. […] There is scope for optimisaiton and broader application of the approach described here. […] Work toward the application of 7 and derivatives in protein profiling and substrate capture in cells is ongoing.
HeLa cells were treated with the […]

T2 sequence (Q9GZT9 181-426 K408I): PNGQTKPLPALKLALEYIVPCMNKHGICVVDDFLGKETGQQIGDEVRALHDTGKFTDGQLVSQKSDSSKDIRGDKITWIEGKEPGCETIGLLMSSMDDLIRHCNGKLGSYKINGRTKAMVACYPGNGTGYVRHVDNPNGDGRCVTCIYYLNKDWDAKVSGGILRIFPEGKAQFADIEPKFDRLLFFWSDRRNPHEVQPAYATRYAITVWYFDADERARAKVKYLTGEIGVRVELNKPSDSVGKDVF
Sequence of PHD1 (Q96KS0 whole entry): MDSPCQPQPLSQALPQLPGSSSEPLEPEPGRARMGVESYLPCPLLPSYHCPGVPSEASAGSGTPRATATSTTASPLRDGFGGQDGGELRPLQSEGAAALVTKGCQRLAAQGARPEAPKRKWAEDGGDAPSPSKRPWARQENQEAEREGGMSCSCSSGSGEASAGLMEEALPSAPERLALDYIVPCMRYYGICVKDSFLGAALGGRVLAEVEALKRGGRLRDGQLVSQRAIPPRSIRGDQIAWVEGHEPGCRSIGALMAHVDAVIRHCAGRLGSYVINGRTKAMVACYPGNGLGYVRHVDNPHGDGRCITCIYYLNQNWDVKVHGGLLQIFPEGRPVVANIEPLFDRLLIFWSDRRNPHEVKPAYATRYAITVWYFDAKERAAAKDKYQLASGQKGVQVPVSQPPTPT
T1 sequence (Q9GZT9 with tags, fused parts or gaps DEL238-250): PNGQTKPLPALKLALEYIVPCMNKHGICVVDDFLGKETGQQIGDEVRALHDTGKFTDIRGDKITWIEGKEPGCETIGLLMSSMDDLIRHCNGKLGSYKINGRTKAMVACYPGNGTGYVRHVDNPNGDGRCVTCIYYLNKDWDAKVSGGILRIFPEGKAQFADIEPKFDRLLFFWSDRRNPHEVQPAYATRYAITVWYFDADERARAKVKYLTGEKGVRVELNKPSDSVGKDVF

crosslinking with loop truncate [1]: Crosslinking was maintained | apparent covalent modification of PHD2 K408I [2]: < 10% | covalent reaction with PHD1 [3]: did not covalently react | covalent reaction with KDM4A [4]: did not accrue evidence
SMILES: C=CC(=O)Nc1cccc(C(=O)NCC(=O)O)c1O [compound 3]
